What all share (assay): activity (1 - area under the dose-response curve within the screened range) (fraction); higher = more sensitive
What all share (details): treatment time: 72 h

In one test the test system is HCM-SANG-0291-C15 (oesophageal cancer organoid). Summed up: (§1)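 Following maintenance in 5% or 80% ECM (BME-2), patient-derived colorectal and oesophageal cancer organoids were seeded onto an ECM layer in 384-well plates and treated for 3 days with a 7-point half-log dilution series, with technical triplicates and biological duplicates. Fits from a non-linear mixed effects model with an RMSE greater than 0.3 were discarded. For each retained curve, activity was the complement of the area under the fitted curve over the screened dose range.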

For another test, the system named is HCM-SANG-0532-C20 (colorectal cancer organoid). In short, it runs like this:
as §1

The subject of the next test is HCM-SANG-0270-C20 (colorectal cancer organoid). In short, it runs like this:
as §1

The test system of a further test is HCM-SANG-0266-C20 (colorectal cancer organoid). In short, it runs like this: as §1
Setting [1] is: ECM percentage in culture prior to screening 5 %.
Setting [2] is: ECM percentage in culture prior to screening 80 %.

Molecules are shown by their SMILES. ± gives the standard deviation of the averaged measurements.

Turning to `CCc1c2c(nc3ccc(OC(=O)N4CCC(N5CCCCC5)CC4)cc13)-c1cc3c(c(=O)n1C2)COC(=O)[C@]3(O)CC` [Irinotecan], the activity was 0.233 ± 0.019 with HCM-SANG-0291-C15 (setting [1]); 0.18 ± 0.015 with HCM-SANG-0291-C15 (setting [2]); 0.1 ± 0.035 in the test with HCM-SANG-0532-C20 (setting [1]); 0.0793 ± 0.037 in the test with HCM-SANG-0532-C20 (setting [2]); 0.0887 ± 0.063 with HCM-SANG-0270-C20 (setting [1]); 0.079 ± 0.039 in the test on HCM-SANG-0270-C20 (setting [2]). For the same compound, the activity with HCM-SANG-0266-C20 (setting [1]) is 0.0899 ± 0.035; with HCM-SANG-0266-C20 (setting [2]), 0.0683 ± 0.022.

With `COc1cc(CCc2cc(NC(=O)c3ccc(N4CC(C)NC(C)C4)cc3)n[nH]2)cc(OC)c1` (stereo not drawn) [AZD4547], the activity with HCM-SANG-0291-C15 (setting [1]) was 0.0191 ± 0.001; with HCM-SANG-0291-C15 (setting [2]), 0.0289 ± 0.014; with HCM-SANG-0532-C20 (setting [1]) it was 0.0579 ± 0.039; in the test with HCM-SANG-0532-C20 (setting [2]), 0.0368 ± 0.013; with HCM-SANG-0270-C20 (setting [1]) it was 0.0358 ± 0.023; in the test on HCM-SANG-0270-C20 (setting [2]), 0.0323 ± 0.017. Besides, the activity in the test with HCM-SANG-0266-C20 (setting [1]) was 0.0268 ± 0.015; in the test with HCM-SANG-0266-C20 (setting [2]), 0.0233 ± 0.0077.

Regarding `C[C@@H]1COCCN1c1cc(C2([S@](C)(=N)=O)CC2)nc(-c2cc[nH]c3nccc2-3)n1` [AZD6738], the activity in the test on HCM-SANG-0291-C15 (setting [1]) was determined as 0.199 ± 0.027; in the test with HCM-SANG-0291-C15 (setting [2]), 0.211 ± 0.037; with HCM-SANG-0532-C20 (setting [1]), 0.116 ± 0.065; with HCM-SANG-0532-C20 (setting [2]) it was 0.108 ± 0.026; in the test on HCM-SANG-0270-C20 (setting [1]), 0.09 ± 0.039; in the test with HCM-SANG-0270-C20 (setting [2]), 0.0864 ± 0.052. Also, the values for the activity with HCM-SANG-0266-C20 (setting [1]) and in the test with HCM-SANG-0266-C20 (setting [2]) were 0.185 ± 0.037 and 0.178 ± 0.033, respectively.

For `CC1(C)CCC(c2ccc(Cl)cc2)=C(CN2CCN(c3ccc(C(=O)NS(=O)(=O)c4ccc(N[C@H](CCN5CCOCC5)CSc5ccccc5)c(S(=O)(=O)C(F)(F)F)c4)cc3)CC2)C1` [Navitoclax], the activity stood at 0.125 ± 0.032 in the test with HCM-SANG-0291-C15 (setting [1]); 0.121 ± 0.029 in the test with HCM-SANG-0291-C15 (setting [2]); 0.314 ± 0.045 in the test with HCM-SANG-0532-C20 (setting [1]); 0.288 ± 0.075 with HCM-SANG-0532-C20 (setting [2]); 0.201 ± 0.033 in the test with HCM-SANG-0270-C20 (setting [1]); 0.188 ± 0.047 in the test on HCM-SANG-0270-C20 (setting [2]). The activity in the test with HCM-SANG-0266-C20 (setting [1]) stood at 0.327 ± 0.03; with HCM-SANG-0266-C20 (setting [2]), 0.358 ± 0.051.

For the compound `CN(C)CCCOc1ccc(-c2ccc3ncc4c(c3c2)n(C2CCOCC2)c(=O)n4C)cn1` [AZD0156], the activity with HCM-SANG-0291-C15 (setting [1]) is 0.0259 ± 0.013; in the test with HCM-SANG-0291-C15 (setting [2]), 0.0316 ± 0.022; in the test with HCM-SANG-0532-C20 (setting [1]) it was 0.0433 ± 0.022; with HCM-SANG-0532-C20 (setting [2]) it was 0.0427 ± 0.017; in the test on HCM-SANG-0270-C20 (setting [1]) it was 0.0254 ± 0.013; in the test with HCM-SANG-0270-C20 (setting [2]), 0.0244 ± 0.0078. Moreover, the activity in the test on HCM-SANG-0266-C20 (setting [1]) amounted to 0.0443 ± 0.024; in the test with HCM-SANG-0266-C20 (setting [2]), 0.0475 ± 0.024.

For the compound `C[C@@H](Oc1cc(-c2cnn(C3CCNCC3)c2)cnc1N)c1c(Cl)ccc(F)c1Cl` [Crizotinib], the activity in the test on HCM-SANG-0291-C15 (setting [1]) was 0.0562 ± 0.022; in the test with HCM-SANG-0291-C15 (setting [2]), 0.065 ± 0.022; in the test on HCM-SANG-0532-C20 (setting [1]) it was 0.101 ± 0.068; in the test on HCM-SANG-0532-C20 (setting [2]), 0.154 ± 0.04; in the test on HCM-SANG-0270-C20 (setting [1]), 0.0695 ± 0.034; in the test on HCM-SANG-0270-C20 (setting [2]), 0.0648 ± 0.056. In addition, the activity with HCM-SANG-0266-C20 (setting [1]) was determined as 0.144 ± 0.035; in the test with HCM-SANG-0266-C20 (setting [2]), 0.0852 ± 0.034.

In the case of `COc1ccc(-c2ccc3c(N4CCOC[C@@H]4C)nc(N4CCOC[C@@H]4C)nc3n2)cc1CO` [AZD8055], the activity turned out to be 0.076 ± 0.03 with HCM-SANG-0291-C15 (setting [1]); 0.0634 ± 0.032 with HCM-SANG-0291-C15 (setting [2]); 0.237 ± 0.076 with HCM-SANG-0532-C20 (setting [1]); 0.301 ± 0.039 in the test with HCM-SANG-0532-C20 (setting [2]); 0.117 ± 0.043 in the test with HCM-SANG-0270-C20 (setting [1]); 0.0699 ± 0.062 in the test with HCM-SANG-0270-C20 (setting [2]). Further, the activity in the test on HCM-SANG-0266-C20 (setting [1]) was 0.298 ± 0.097; with HCM-SANG-0266-C20 (setting [2]), 0.251 ± 0.12.

For `CC1(C)CCC(CN2CCN(c3ccc(C(=O)NS(=O)(=O)c4ccc(NCC5CCOCC5)c([N+](=O)[O-])c4)c(Oc4cnc5[nH]ccc5c4)c3)CC2)=C(c2ccc(Cl)cc2)C1` [Venetoclax], the activity in the test on HCM-SANG-0291-C15 (setting [1]) is 0.0236 ± 0.007; in the test on HCM-SANG-0291-C15 (setting [2]) it was 0.0311 ± 0.022; with HCM-SANG-0532-C20 (setting [1]) it was 0.0233 ± 0.0047; with HCM-SANG-0532-C20 (setting [2]), 0.0331 ± 0.0083; with HCM-SANG-0270-C20 (setting [1]), 0.0303 ± 0.0092; with HCM-SANG-0270-C20 (setting [2]), 0.0357 ± 0.029. Also, the activity came to 0.0407 ± 0.02 in the test on HCM-SANG-0266-C20 (setting [1]) and 0.0384 ± 0.018 in the test with HCM-SANG-0266-C20 (setting [2]).

As to `Cc1nc(-c2cn3c(n2)-c2ccc(-c4cnn(C(C)(C)C(N)=O)c4)cc2OCC3)n(C(C)C)n1` [Taselisib], the activity in the test with HCM-SANG-0291-C15 (setting [1]) stood at 0.0465 ± 0.018; in the test with HCM-SANG-0291-C15 (setting [2]) it was 0.0601 ± 0.017; in the test on HCM-SANG-0532-C20 (setting [1]) it was 0.158 ± 0.12; with HCM-SANG-0532-C20 (setting [2]) it was 0.249 ± 0.059; with HCM-SANG-0270-C20 (setting [1]), 0.0832 ± 0.048; with HCM-SANG-0270-C20 (setting [2]), 0.0597 ± 0.055. Further, the activity is 0.413 ± 0.13 in the test with HCM-SANG-0266-C20 (setting [1]) and 0.263 ± 0.14 in the test on HCM-SANG-0266-C20 (setting [2]).

Consider `O=C(CCCCCCC(=O)Nc1ccccc1)NO` [Vorinostat], for which the activity was 0.232 ± 0.021 with HCM-SANG-0291-C15 (setting [1]); 0.222 ± 0.03 in the test with HCM-SANG-0291-C15 (setting [2]); 0.132 ± 0.022 in the test with HCM-SANG-0532-C20 (setting [1]); 0.211 ± 0.034 with HCM-SANG-0532-C20 (setting [2]); 0.163 ± 0.017 with HCM-SANG-0270-C20 (setting [1]); 0.153 ± 0.028 in the test on HCM-SANG-0270-C20 (setting [2]). Besides, the activity in the test on HCM-SANG-0266-C20 (setting [1]) was determined as 0.225 ± 0.032; in the test with HCM-SANG-0266-C20 (setting [2]), 0.172 ± 0.032.

With `CC[C@@H]1C(=O)N(C)c2cnc(Nc3ccc(C(=O)NC4CCN(C)CC4)cc3OC)nc2N1C1CCCC1` [BI-2536], the activity in the test on HCM-SANG-0291-C15 (setting [1]) was 0.429 ± 0.043; with HCM-SANG-0291-C15 (setting [2]) it was 0.464 ± 0.06; in the test on HCM-SANG-0532-C20 (setting [1]) it was 0.292 ± 0.087; in the test on HCM-SANG-0532-C20 (setting [2]), 0.335 ± 0.046; in the test on HCM-SANG-0270-C20 (setting [1]) it was 0.305 ± 0.17; with HCM-SANG-0270-C20 (setting [2]), 0.311 ± 0.11. For the same compound, the activity in the test on HCM-SANG-0266-C20 (setting [1]) is 0.439 ± 0.041; with HCM-SANG-0266-C20 (setting [2]), 0.436 ± 0.036.

The record behind these values is the supplement of paper PMC8976852.
